We go through four compounds from patent US11091494B2, “Crystal form of acalabrutinib and preparation method and use thereof” (Crystal Pharmaceutical (Suzhou) Co., Ltd., priority 2018, dated 2021).

A short description of data set [1]: Hygroscopicity by dynamic vapor sorption (DVS). Conditions: 80% RH, 25° C.; for Hygroscopicity: Chinese Pharmacopoeia 2015 definition; for Weight gain: DVS. It is filed as physicochemical. As for the experimental part: Dynamic vapor sorption (DVS) was applied to test hygroscopicity of Form A with about 10 mg of sample. Weight changes at each relative humidity were recorded in a cycle of 0-95%-0 RH at 25° C.±1° C.
Description and definition of hygroscopicity (general notice 9103 drug hygroscopicity test guidelines in 2015 edition of Chinese Pharmacopoeia, test at 25° C.+/−1° C., 80% RH). • deliquescent: Sufficient water is absorbed to form a liquid; • very hygroscopic: Increase in mass is equal to or greater than 15 percent; • hygroscopic: Increase in mass is less than 15 percent and equal to or greater than 2 percent; • slightly hygroscopic: Increase in mass is less than 2 percent and equal to or greater than 0.2 percent. • non hygroscopic or almost non hygroscopic: Increase in mass is less than 0.2%.
Dynamic vapor sorption (DVS) was applied to test hygroscopicity of Form F with about 10 mg of sample. Weight changes at each relative humidity were recorded in a cycle of 0-95%-0 RH at 25° C.±1° C. DVS plot is substantially as depicted in FIG. 32, and XRPD patterns before and after DVS are compared in FIG. 33.
Description and definition of hygroscopicity (general notice 9103 drug hygroscopicity test guidelines in 2015 edition of Chinese Pharmacopoeia, test at 25° C. +/−1° C., 80% RH). • deliquescent: Sufficient water is absorbed to form a liquid; • very hygroscopic: Increase in mass is equal to or greater than 15 percent; • hygroscopic: Increase in mass is less than 15 percent and equal to or greater than 2 percent; • slightly hygroscopic: Increase in mass is less than 2 percent and equal to or greater than 0.2 percent. • non hygroscopic or almost non hygroscopic: Increase in mass is less than 0.2%.
Dynamic vapor sorption (DVS) was applied to test hygroscopicity of Form CS15 with about 10 mg of sample. Weight changes at each relative humidity were recorded in a cycle of 0-95%-0 RH at 25° C.±1° C. DVS plot is substantially as depicted in FIG. 38, and XRPD patterns before and after DVS are compared in FIG. 39.

Data set [2] can be described thus: Compressibility (tensile strength of compressed tablet). The data set is classed as physicochemical. Conditions: about 80 mg, φ6 mm round tooling, compressed at 10 kN. On the procedure:
Approximately 80 mg of Form A and Form I in WO2017002095A1 were weighed into the dies of a φ6 mm round tooling, compressed at 10 kN manually, then stored in a desiccator for 24 hours until complete elastic recovery. Radial crushing force (hardness, H) was tested with an intelligent tablet hardness tester. Diameter (D) and thickness (L) were tested with a caliper. Tensile strength of the powder that with different hardness was calculated with the following formula: T=2H/πDL. Under a certain force, the greater the tensile strength, the better the compressibility.
Approximately 80 mg of Form D and Form I in WO2017002095A1 were weighed into the dies of a φ6 mm round tooling, compressed at 10 kN manually, and then stored in a desiccator for 24 hours until complete elastic recovery. Radial crushing force (hardness, H) was tested with an intelligent tablet hardness tester. Diameter (D) and thickness (L) were tested with a caliper. Tensile strength of the powder with different hardness was calculated with the following formula: T=2H/πDL. Under a certain force, the greater the tensile strength, the better the compressibility.
Approximately 80 mg of Form F and Form I in WO2017002095A1 were weighed into the dies of a φ6 mm round tooling, compressed at 10 kN manually, and then stored in a desiccator for 24 hours until complete elastic recovery. Radial crushing force (hardness, H) was tested with an intelligent tablet hardness tester. Diameter (D) and thickness (L) were tested with caliper. Tensile strength of the powder with different hardness was calculated with the following formula: T=2H/πDL. Under a certain force, the greater the tensile strength, the better the compressibility.
Approximately 80 mg of Form G and Form I of WO2017002095A1 were weighed into the dies of a φ6 mm round tooling, compressed at 10 kN manually, and then stored in a desiccator for 24 hours until complete elastic recovery. Radial crushing force (hardness, H)) was tested with an intelligent tablet hardness tester. Diameter (D) and thickness (L) were tested with caliper. Tensile strength of the powder with different hardness was calculated with the following formula: T=2H/πDL. Under a certain force, the greater the tensile strength, the better the compressibility.
Approximately 80 mg of Form CS15 and Form I in WO2017002095A1 were weighed into the dies of a φ6 mm round tooling, compressed at 10 kN manually, and then stored in a desiccator for 24 hours until complete elastic recovery. Radial crushing force (hardness, H) was tested with an intelligent tablet hardness tester. Diameter (D) and thickness (L) were tested with caliper. Tensile strength of the powder with different hardness was calculated with the following formula: T=2H/πDL. Under a certain force, the greater the tensile strength, the better the compressibility.

On to `CC#CC(=O)N1CCC[C@H]1c1nc(-c2ccc(C(=O)Nc3ccccn3)cc2)c2c(N)nccn12` [Form A, (S)-4-(8-amino-3-(1-(but-2-ynoyl)pyrrolidin-2-yl)imidazo[1,5-a]pyrazin-1-yl)-N-(pyridin-2-yl)benzamide], for which, in data set [1], the Hygroscopicity result is “slightly hygroscopic (Increase in mass is less than 2 percent and equal to or greater than 0.2 percent)”; the Weight gain is on record as 0.99%. The Tensile strength in data set [2] was 1.35 MPa.
Consider `CC#CC(=O)N1CCC[C@H]1c1nc(-c2ccc(C(=O)Nc3ccccn3)cc2)c2c(N)nccn12` [Form CS15, (S)-4-(8-amino-3-(1-(but-2-ynoyl)pyrrolidin-2-yl)imidazo[1,5-a]pyrazin-1-yl)-N-(pyridin-2-yl)benzamide], for which, in data set [1], the Hygroscopicity result is “slightly hygroscopic (Increase in mass is less than 2 percent and equal to or greater than 0.2 percent)”; the Weight gain came to 1.78%. In addition, in data set [2], the Tensile strength came to 1.18 MPa.
Regarding `CC#CC(=O)N1CCC[C@H]1c1nc(-c2ccc(C(=O)Nc3ccccn3)cc2)c2c(N)nccn12` [Form F, (S)-4-(8-amino-3-(1-(but-2-ynoyl)pyrrolidin-2-yl)imidazo[1,5-a]pyrazin-1-yl)-N-(pyridin-2-yl)benzamide], in data set [1], the Hygroscopicity entry is recorded as “non hygroscopic or almost non hygroscopic (Increase in mass is less than 0.2%)” and the Weight gain is given as 0.09%. In data set [2], this compound gave a Tensile strength of 1.02 MPa.
Turning to `CC#CC(=O)N1CCC[C@H]1c1nc(-c2ccc(C(=O)Nc3ccccn3)cc2)c2c(N)nccn12` [Form G, (S)-4-(8-amino-3-(1-(but-2-ynoyl)pyrrolidin-2-yl)imidazo[1,5-a]pyrazin-1-yl)-N-(pyridin-2-yl)benzamide], in data set [2], the Tensile strength amounted to 1.62 MPa.
